Values quoted from earlier work in patent US10463731B2, “Adjuvant combinations comprising alpha-galactosylceramide or iGb3, CD40 agonists and antigen” (IMMURX, INC., priority 2007, dated 2019).

Test system: tumors
Details: monotherapy, mice

CCCCCCCCCCCCCCCCCCCCCCCCCC(=O)N[C@@H](CO[C@H]1O[C@H](CO)[C@H](O)[C@H](O)[C@H]1O)[C@H](O)[C@H](O)CCCCCCCCCCCCCC [α-Gal-Cer, alpha-galactosylceramide]
enhancement of immunity to tumors: limited success
